Assay type in all cases: cell-based
Experiment [1] deals with tunneling nanotubes (TNTs) in 50:50 DS/MDR MDA-MB-231 cells. The experiment in a line: Number of TNTs/cm^2 counted in 50:50 DS/MDR co-culture after treatment. Particulars: 50:50 DS/MDR ratio of MDA-MB-231 cells, n=25, FIG. 4C.
The next experiment concerns DS TNBC cells. Briefly: Wound healing assay (cell migration), drug sensitive cells. To be noted: AS-LNP at 10 PM and 30 PM, n=10, FIG. 6A. The source says: (§1) SNARE proteins mediate EV release but also mediate the fusion of TNTs with recipient cells.
The subject of another experiment is MDR TNBC cells. The experiment in a line: Wound healing assay (cell migration), MDR cells. To be noted: AS-LNP at 10 PM and 30 PM, n=10, FIG. 6B.
Source text: as §1

Each structure is given as a SMILES string.

In the case of `C/C1=C\[C@@H](C)C/C=C/[C@H]2[C@@H]3O[C@]3(C)[C@@H](C)[C@H]3[C@H](Cc4c[nH]c5ccccc45)NC(=O)[C@]32C(=O)/C=C/C(=O)[C@@H]1O` [CA, chaetoglobosin A], the “number of TNTs/cm^2” value in experiment [1] is listed as “significantly reduced the number of TNTs”.
In the case of `O=C(/C=C/c1ccc(/C=C/C(=O)Nc2ccc(C3=NCCN3)cc2)cc1)Nc1ccc(C2=NCCN2)cc1` [GW4869], the “cell migration in wound healing assay” value with DS TNBC cells and in the experiment with MDR TNBC cells was “did not decrease cell migration” each time.
For the compound `CN(C)C(=N)N=C(N)N` [metformin], the “number of TNTs/cm^2” value in experiment [1] is reported as “more effective in reducing the number of TNTs”.

The record behind these values is patent publication US20250312411A1, “Treatment of Multi-Drug-Resistant Cancers Using Nanoparticulate Drug Delivery Vehicles” (priority 2024, published 2025).
